Assay results as given in PubChem BioAssay (NCI).
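Exposure lasted 48 hours, with cells grown in 96-well plates and compounds tested at five concentrations. GI50 = concentration required for 50% inhibition of growth. At the TGI there is no net growth.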

Columns and labels:
Test in all cases: DTP human tumour cell line panel, 48 h
OVCAR-8 ovarian = test system: OVCAR-8 ovarian
U251 CNS = test system: U251 CNS
MALME-3M melanoma = test system: MALME-3M melanoma
A498 renal = test system: A498 renal
NCI-H522 lung = test system: NCI-H522 lung
MDA-MB-435 = test system: MDA-MB-435
A549 NSCLC = test system: A549 NSCLC
K-562 leukemia = test system: K-562 leukemia
HOP-92 NSCLC = test system: HOP-92 NSCLC
COLO 205 colon = test system: COLO 205 colon

Structure (SMILES)	GI50 (OVCAR-8 ovarian)	GI50 (U251 CNS)	TGI (U251 CNS)	GI50 (MALME-3M melanoma)	TGI (MALME-3M melanoma)	GI50 (A498 renal)	TGI (A498 renal)	GI50 (NCI-H522 lung)	TGI (NCI-H522 lung)	GI50 (MDA-MB-435)	TGI (MDA-MB-435)	GI50 (A549 NSCLC)	TGI (A549 NSCLC)	GI50 (K-562 leukemia)	GI50 (HOP-92 NSCLC)	TGI (HOP-92 NSCLC)	GI50 (COLO 205 colon)	TGI (COLO 205 colon)	TGI (OVCAR-8 ovarian)	TGI (K-562 leukemia)
COc1ccc(CC(NC(=O)[C@H](C)NC(=O)CN2CCOCC2)C(=O)N[C@@H](Cc2ccccc2)C(=O)[C@@]2(C)CO2)cc1 (stereo partly specified)	0.342 µM	0.271 µM	1.07 µM	0.281 µM	1.41 µM	0.224 µM	0.893 µM	0.278 µM	0.908 µM	0.069 µM	0.484 µM	0.461 µM	> 22.9 µM	0.268 µM	0.227 µM	0.758 µM	0.308 µM	0.933 µM	–	–
O=C(Nc1ccc(Cl)cc1)c1cc(S(=O)(=O)Nc2nnc(-c3ccccc3)c(-c3ccccc3)n2)c(SCc2ccccc2)cc1Cl	31.8 µM	20.7 µM	51.3 µM	34.2 µM	> 100 µM	20.4 µM	77.9 µM	43.9 µM	> 71.2 µM	21.2 µM	61.5 µM	37.2 µM	> 62.2 µM	25 µM	25.3 µM	66.8 µM	23.8 µM	> 60.3 µM	> 71 µM	> 100 µM
COc1cc(-c2cc(/C=C3\C(=O)Nc4ccccc43)[nH]n2)cc(OC)c1OC	2.5 µM	3.63 µM	19.6 µM	2.28 µM	7.47 µM	2.5 µM	7.71 µM	1.99 µM	6.3 µM	2.38 µM	6.25 µM	3.36 µM	13 µM	2.65 µM	1.97 µM	9.12 µM	2.47 µM	7.02 µM	7.48 µM	11.5 µM
CC1SC(c2c(Cl)cccc2Cl)N(NC(=O)C(O)c2ccccc2)C1=O (stereo unspecified)	> 100 µM	54.1 µM	> 100 µM	–	–	75.7 µM	> 100 µM	60.9 µM	> 100 µM	43.2 µM	> 100 µM	94 µM	> 100 µM	39.9 µM	57.8 µM	> 100 µM	> 100 µM	> 100 µM	> 100 µM	> 100 µM
O=S(=O)(O)/C(=C\c1ccccc1)c1ccccc1 (tested in a mixture with another compound)	–	–	> 100 µM	–	> 100 µM	–	> 100 µM	–	> 100 µM	–	> 100 µM	–	> 100 µM	–	–	> 100 µM	–	> 100 µM	> 100 µM	> 100 µM
CC(O)(CNS(=O)(=O)c1ccccc1)c1ccccc1 (stereo unspecified)	–	–	> 100 µM	–	> 100 µM	–	> 100 µM	–	> 100 µM	–	> 100 µM	–	> 100 µM	–	–	> 100 µM	–	> 100 µM	> 100 µM	> 100 µM
COC(=O)C1(C2CC/C(C)=C/CC/C(C)=C/CC[C@@]3(C)O[C@@H]3C2)CC1 (stereo partly specified)	> 44.3 µM	39.1 µM	> 100 µM	> 83.8 µM	> 100 µM	> 100 µM	> 100 µM	50.4 µM	> 100 µM	32.1 µM	98.3 µM	29 µM	> 80.3 µM	29.1 µM	27.3 µM	> 100 µM	> 56.5 µM	> 100 µM	> 65.1 µM	99.6 µM
NCCP(=O)(O)O	–	–	> 100 µM	–	> 100 µM	–	> 100 µM	–	> 100 µM	–	> 100 µM	–	> 100 µM	–	–	> 100 µM	–	> 100 µM	> 100 µM	> 100 µM
O=C(O)c1cscc1Cc1cccs1	–	–	> 100 µM	–	> 100 µM	–	> 100 µM	–	> 100 µM	–	> 100 µM	–	> 100 µM	–	–	> 100 µM	–	> 100 µM	> 100 µM	> 100 µM
C1=C(c2ccccc2)C(c2ccc(OCCN3CCCCC3)cc2)Oc2ccccc21 (stereo unspecified)	2.3 µM	1.65 µM	3.18 µM	1.73 µM	3.48 µM	1.67 µM	3.17 µM	1.59 µM	3.37 µM	1.64 µM	3.03 µM	2.19 µM	4.76 µM	1.53 µM	1.56 µM	3.25 µM	1.62 µM	3.15 µM	5.91 µM	3.38 µM
CNC(=O)OC1C(O[C@H]2C[C@H]3[C@@H]4CC=C5C[C@@H](O)CC[C@]5(C)[C@H]4CC[C@]3(C)[C@H]2[C@H](C)C(=O)CCC(C)C)OCC(O)C1OC1OCC(O)C(O)C1OC(=O)c1ccc(OC)cc1 (stereo partly specified)	2.82 µM	0.00334 µM	3.87 µM	0.0517 µM	2.33 µM	0.00446 µM	0.0205 µM	0.0314 µM	0.271 µM	0.0203 µM	0.359 µM	0.0178 µM	4.96 µM	0.0139 µM	0.0209 µM	3.1 µM	0.0579 µM	0.361 µM	11.2 µM	0.554 µM
Cc1ccc(C2C3=C(N=c4s/c(=C/c5ccc(Br)cc5)c(=O)n42)c2ccc4ccccc4c2OCC3)cc1 (stereo unspecified)	> 100 µM	> 100 µM	> 100 µM	54.9 µM	> 100 µM	> 100 µM	> 100 µM	> 100 µM	> 100 µM	> 100 µM	> 100 µM	> 100 µM	> 100 µM	> 100 µM	> 100 µM	> 100 µM	> 100 µM	> 100 µM	> 100 µM	> 100 µM
O=S(=O)(NCCNc1cc(-c2cn(-c3ccccc3)nc2-c2cccc(O)c2)ccn1)c1ccc(Cl)cc1	3.72 µM	3.21 µM	11.4 µM	2.16 µM	5.47 µM	2.33 µM	9.52 µM	2.16 µM	5.79 µM	2.86 µM	10.1 µM	3.89 µM	18.8 µM	1.98 µM	2.34 µM	8.35 µM	1.87 µM	4 µM	22.6 µM	5.4 µM
Cc1ccc2c(c1)O/C(=C\c1ccc([N+](=O)[O-])o1)C2=O	1.4 µM	1.82 µM	3.98 µM	2.42 µM	4.6 µM	3.77 µM	18.6 µM	0.531 µM	1.86 µM	1.87 µM	4.42 µM	2.74 µM	8.53 µM	0.388 µM	1.14 µM	2.76 µM	1.43 µM	3.28 µM	6.57 µM	2.04 µM
CCOc1ccc2ccc3cccnc3c2n1	–	–	> 100 µM	–	> 100 µM	–	76 µM	–	> 100 µM	–	> 100 µM	–	> 100 µM	–	–	> 100 µM	–	> 100 µM	> 100 µM	> 100 µM
C/C1=C\C/C=C(\C)[C@H]2CC(CC/C(C)=C/CC1)[C@](C)(C=O)O2	> 100 µM	43.9 µM	> 100 µM	–	–	92.2 µM	> 100 µM	59.6 µM	> 100 µM	66.1 µM	> 100 µM	> 100 µM	> 100 µM	54.8 µM	39.8 µM	> 100 µM	> 100 µM	> 100 µM	> 100 µM	> 100 µM
O=C1c2ccn(CCCCN3CCCCC3)c2C(=O)c2c1c(O)c1ccccc1c2O	3.52 µM	6.16 µM	–	7.58 µM	20.4 µM	15.3 µM	35.1 µM	11.1 µM	56 µM	2.19 µM	5.27 µM	10.3 µM	33.9 µM	2.68 µM	3.68 µM	22.9 µM	5.8 µM	> 52.2 µM	> 100 µM	–
O=C(Nc1cccc(O)c1)c1cccc(NC2=C(Cl)C(=O)N(Cc3ccccc3)C2=O)c1	13.1 µM	13.7 µM	26.6 µM	–	–	13.2 µM	28.9 µM	3.08 µM	17.4 µM	2.59 µM	11.4 µM	18.8 µM	48.3 µM	1.51 µM	11.7 µM	29.4 µM	27.4 µM	67 µM	43.5 µM	28.4 µM
COC(=O)OCc1ccc2c(c1)C(=O)c1c-2n(CCCBr)c(=O)c2cc([N+](=O)[O-])ccc12	> 100 µM	35.3 µM	> 100 µM	> 100 µM	> 100 µM	57.6 µM	> 100 µM	> 100 µM	> 100 µM	> 100 µM	> 100 µM	> 100 µM	> 100 µM	–	28.9 µM	77.1 µM	> 100 µM	> 100 µM	> 100 µM	–
COc1ccc(C(=O)COc2cccc(/C=C3\CSc4ccc(Cl)cc4C3=O)c2)cc1	9.35 µM	2.13 µM	4.59 µM	11.6 µM	32 µM	36.5 µM	> 100 µM	2.07 µM	4.9 µM	3.48 µM	17 µM	64 µM	> 100 µM	–	1.28 µM	19.8 µM	14.1 µM	29 µM	56.3 µM	–
